Test results: patent US12616681B2, “Compositions and methods for treating renal injury” (priority 2019, dated 2026)

Tests used:
[1] = tested on: mice with ischemic AKI (bilateral renal IRI); experiment: Renal IRI model: necrotic and apoptotic cell death, gross pathology; type: in vivo, C57/BL6 mice; details: 24 h after renal IRI; 5 mg/kg ip three times
Text: To evaluate necrosis, 5-μm-thick paraffin sections were stained with hematoxylin and eosin. Tubular injury of individual slides was scored semi-quantitatively according to a scoring system by a pathologist in a blinded manner. The scoring system was as follows: 0, no damage; 1, patchy isolated unicellular necrosis; 2, tubular necrosis <25%; 3, tubular necrosis 25-50%; and 4, tubular necrosis >50%. To analyze the frequency of apo ptosis, 5-μm-thick paraffin sections were subjected to a TUNEL assay (Millipore, Temecula, CA) according to the manufacturer's protocol. TUNEL-positive cells were counted in at least five separate fields (64 magnification) in the outer medulla, and the apoptosis index (in %, number of apoptosis cells/total number of cells) was calculated using GENASIS software.

[2] = tested on: PGE2 levels in kidney tissue; experiment: Renal PGE2 levels in normal mice 1 h after injection (Example 2); type: in vivo
Experimental: Next, 20 mg kidney tissue was homogenized in […] cold PBS containing indomethacin (10 μg/mL) using a tissue homogenizer. The suspension was sonicated in an ice-water bath for 1 min using cycles of 10 s of sonication with 10 s of cooling, and then they were centrifuged for 10 min at 12,000 rpm. The supernatant was collected for PGE-2 assay. Protein concentrations were determined by bicinchoninic acid assay (Cat. #23225, Thermo Scientific). The PGE2 level in the supernatant was measured using a PGE2 enzyme-linked immunosorbent assay kit (R&D Systems, Minneapolis, MN, USA) in triplicate. PGE-2 levels were expressed as ng of PGE2/mg protein.

[3] = tested on: contrast-induced acute kidney injury (CIAKI) mice; experiment: CIAKI mouse model: renal function (serum creatinine, NGAL, KIM-1); type: in vivo, C57/BL6 mice
Experimental: Female mice were injected with 10 gI/kg of Visipaque (iodixanol) via the tail vein. […] For inhibition of the EP4s, mice were treated with 0.2 mg/kg/day of ONO-AE3-208 by subcutaneous injection for 14 days. Serum and kidney tissue were collected 48 h after the iodixanol injection.
Renal function was assessed by determining the serum levels of creatinine (Arbor Assays, Ann Arbor, MI, USA), NGAL (R&D Systems), and KIM-1 (R&D Systems) at 48 h after the iodixanol injection.

[4] = tested on: contrast-induced acute kidney injury (CIAKI) mice; experiment: CIAKI mouse model: necrotic and apoptotic cell death, gross findings; type: in vivo, C57/BL6 mice; details: 48 h after CM
Experimental: Kidneys were harvested at 48 h after the CM injection, fixed in 4% phosphate-buffered formalin, and embedded in paraffin. To evaluate necrosis, […] paraffin sections were stained with hematoxylin and eosin. Tubular injury was scored semi-quantitatively according to a system by a pathologist who examined at least 20 separate fields (400× magnification) in the outer medulla, which is the zone most sensitive to ischemic injury. The scoring system was as follows: 0, no damage; 1, patchy isolated unicellular necrosis; 2, tubular necrosis <25%; 3, tubular necrosis 25-50%; and 4, tubular necrosis >50%. At least 20 consecutive high-power fields per section were scored by two operators blind to the details of the experiment. To analyze the frequency of apoptosis, […] paraffin sections were subjected to terminal deoxynucleotidyl transferase-mediated dUTP nick-end labeling (TUNEL) assay (Millipore, Temecula, CA, USA) according to the manufacturer's protocol. Four […] paraffin sections were incubated with the TUNEL reaction mixture at 37° C. for 1 h, followed by incubation with a horseradish peroxidase-conjugated detection antibody. The signals were visualized using diaminobenzidine (Sigma-Aldrich). After counterstaining with Mayer's hematoxylin, TUNEL-positive cells were counted in at least five separate fields (640× magnification) in the outer medulla, and the apoptosis index (%, number of apoptosis cells/total number of cells) was calculated using GENASIS software.

[5] = tested on: human renal proximal tubular epithelial cells (hRPTECs); experiment: hRPTEC apoptosis by flow cytometry with iodixanol; type: cell-based; details: drug with iodixanol 50 mgI/mL, 24 h
Experimental: Human renal proximal tubular epithelial cells (hRPTECs) were purchased from the American Type Culture Collection (#PCS-400-010TM, Manassas, VA, USA). These cells were grown in 75 cm^2 flasks in Renal Epithelial Cell Basal Medium (PCS-400-030TM, ATCCVR) supplemented with Renal Epithelial Cell Growth Kit (PCS-400-040TM, ATCCVR).
After the treatment described in the section above, the hRPTECs were pelleted by centrifugation at 1800 rpm for 10 min and incubated with annexin V fluorescein isothiocyanate and propidium iodide using an Apoptosis Detection Kit I (#556547, BD Biosciences, San Jose, CA, USA) according to the manufacture's instruction. Then quantification was conducted using a FACSC flow cytometer with Cell Quest software (BD Biosciences).

[6] = tested on: contrast-induced acute kidney injury (CIAKI) mice; experiment: CIAKI mouse model: renal vasodilation in the outer medulla; type: in vivo, C57/BL6 mice; details: CM + drug, 48 h after CM
Experimental: 48 h after CM injection, kidney tissues were harvested, fixed in 4% phosphate-buffered formalin, and embedded in paraffin. To quantify vasodilation, the inner arteriole area of the outer medulla was determined using α-SMA-stained sections. They were incubated for 1 h with an α-SMA antibody. 3,30-diamino-benzidine (0.7 g/tablet; Sigma-Aldrich) was added, followed by washing three times with PBS for 1 min each. After counterstaining with Mayer's hematoxylin, the inner areas of α-SMA-positive vessels in the outer medulla (25× magnification) were measured using ImageJ software. The results were expressed as the average area of all of the renal arteries in each outer medulla section.

For `CCCC[S+]([O-])c1sc2nc(-c3cccs3)cc(-c3ccccc3)c2c1N` (stereo not shown) [SW033291], the “count of TUNEL-positive apoptotic cells” value [1] was “reducing”, the “histological renal injury score” value [1] was “reducing” and the “tissue congestion in the outer medulla (gross pathology)” value [1] was “ameliorated”. The “increase of renal PGE2 vs vehicle-administered normal mice” value ([2]; 1 h after administration, average) was “three times”, the “renal PGE2 levels” value ([2]; normal mice, 1 h after ip 5 mg/kg) was 29.71 ± 2.79 ng/mg and the “serum creatinine, absence or presence of ONO-AE3-208” value ([3]; CIAKI mice (FIG. 15E), SW033291 line = CM + SW033291, ONO-AE3-208 line = CM + ONO-AE3-208 + SW033291) was 0.50 ± 0.10 mg/dL. For the same compound, the “serum NGAL, absence or presence of ONO-AE3-208” value ([3]; CIAKI mice (FIG. 15F), SW033291 line = CM + SW033291, ONO-AE3-208 line = CM + ONO-AE3-208 + SW033291) was 140.41 ± 25.52 ng/mL, the “serum KIM-1, absence or presence of ONO-AE3-208” value ([3]; CIAKI mice (FIG. 15G), SW033291 line = CM + SW033291, ONO-AE3-208 line = CM + ONO-AE3-208 + SW033291) was 0.09 ± 0.05 ng/mL and the serum creatinine ([3]; CIAKI mice, CM + drug, 48 h after CM (FIG. 11C)) was 1.10 ± 0.11 mg/dL. For the same compound, the “serum NGAL” value ([3]; CIAKI mice, CM + drug, 48 h after CM (FIG. 11D)) was 140.41 ± 25.52 ng/mL, the “serum KIM-1” value ([3]; CIAKI mice, CM + drug, 48 h after CM (FIG. 11E)) was 0.43 ± 0.30 ng/mL and the “vascular congestion in the outer medullary region (gross findings)” value [4] was “less-congested”. The “proportion of TUNEL-positive cells” value ([4]; CM + drug) was 24.01±2.90%, the “microscopic renal injury score” value ([4]; CM + drug, score 0-4) was 0.53±0.16 and the “apoptosis rate of hRPTECs” value [5] was 10.06±0.85%. For the same compound, the “average renal arteriole area in the outer medulla” value [6] was 1132.97±159.86 μm^2.
